According to patent publication US6384026B1, “Macrocyclic polyamine lactones and derivatives thereof and their use as arthropod repellents” (Cornell Research Foundation, Inc., priority 1998, dated 2002):

Legend:
ants = assay: Tests with ants on pupal secretion and its tocopherol components; type: in vivo, Crematogaster cerasi; conditions: E. borealis pupal secretion and components
H. axyridis adults = assay: Feeding choice bioassay with ladybird beetle (treated vs control moth eggs); type: in vivo, Harmonia axyridis; conditions: choice test, moth eggs treated topically with ethyl ether solution vs ethyl ether only
Method: The biological activity of synthetic PAML 681 was also evaluated in a feeding bioassay with a ladybird beetle. The bioassay was a choice test in which individual H. axyridis adults were presented with two offerings of an edible food item, for example, insect eggs of the moth Uthesisia ornatrix, of which one offering was treated by topical application of an ethyl ether solution of PAML 681, while the other offering (“control”) was treated with ethyl ether only. […] Similar experiments were performed with synthetic samples of PAML 908 and PAML 1362, as well as with mixtures of PAML 681 and alpha-tocopherol acetate.

[1] = Isomerization (O-to-N acyl transfer) on storage, analysed by HPLC-MS; type: physicochemical; conditions: substantially pure samples stored at 25° C. for 2 days
[2] = test system: ladybird beetles (Harmonia axyridis); assay: Deterrency bioassays with predacious insects: ladybird beetles; type: in vivo; conditions: synthetic samples
Text: (§1) Synthetic samples of macrocycles PAML 681, PAML 908, and PAML 1362 (structure 6 of FIG. 3, wherein m, n, o, p, q, and r=7) as well as mixtures of synthetic PAML 681 and Vitamin E acetate were used in bioassays with various predacious insects, for example, ladybird beetles (Harmonia axyridis) and ants of the genus Crematogaster.

[3] = test system: ants of the genus Crematogaster; assay: Deterrency bioassays with predacious insects: ants; type: in vivo; conditions: synthetic samples
Text: as §1

beetles (Carabidae) = assay: Feeding tests with beetles (Carabidae); type: in vivo
[4] = test system: Periplaneta americana (American cockroach); assay: Irritancy tests with cockroaches; type: in vivo

## CC(=O)Oc1c(C)c(C)c2c(c1C)CCC(C)(CCC[C@H](C)CCC[C@H](C)CCCC(C)C)O2 (some centres unmarked) [vitamin E acetate, Vitamin E acetate]
ants
  deterrency in tests with ants: essentially inactive

## CC1CCCCCCCCC(=O)OCCNC(C)CCCCCCCCC(=O)OCCNC(C)CCCCCCCCC(=O)OCCNC(C)CCCCCCCCC(=O)OCCN1 (centres unmarked) [PAML 908]
H. axyridis adults
  antifeedant activity: strong antifeedant activity
[1]
  monoamide formed (relative percentage of the total ion current): 10%
[2]
  activity as insect deterrent: highly active as insect deterrents
[3]
  activity as insect deterrent: highly active as insect deterrents

## CC1CCCCCCCCC(=O)OCCNC(C)CCCCCCCCC(=O)OCCNC(C)CCCCCCCCC(=O)OCCN1 (centres unmarked) [PAML 681]
H. axyridis adults
  antifeedant activity: strong antifeedant activity
[1]
  monoamide formed (relative percentage of the total ion current): 7%
[2]
  activity as insect deterrent: highly active as insect deterrents
Beetles (Carabidae)
  insect repellent and deterrent activity: strong insect repellent and deterrent
[4]
  insect repellent and deterrent activity (irritancy): strong insect repellent and deterrent
[3]
  activity as insect deterrent: highly active as insect deterrents
